Measured values: ChEMBL document CHEMBL3046007, “Isonicotinic acid hydrazide derivatives: synthesis, antimicrobial activity, and QSAR studies” (Med Chem Res, 2012)
Converted amounts (≈) assume the structure as drawn.

Legend:
[1] = system: Vesicular stomatitis virus; assay: Antiviral activity against Vesicular stomatitis virus infected human HeLa cells assessed as inhibition of virus-induced cytopathicity; assay type: functional, organism-based
[2] = system: Human alphaherpesvirus 1; assay: Antiviral activity against Human herpesvirus 1 strain KOS infected in human HEL cells assessed as inhibition of virus-induced cytopathicity; assay type: functional, organism-based; conditions: Human alphaherpesvirus 1, KOS
[3] = system: Escherichia coli; assay: Antimicrobial activity against Escherichia coli after 24 hr by serial dilution method; assay type: functional
[4] = system: Human alphaherpesvirus 1; assay: Antiviral activity against TK(-) aciclovir-resistant Human herpesvirus 1 strain KOS infected in human HEL cells assessed as inhibition of virus-induced cytopathicity; assay type: functional, organism-based; conditions: Human alphaherpesvirus 1, KOS
[5] = system: Coxsackievirus B4; assay: Antiviral activity against Human coxsackievirus B4 infected human HeLa cells assessed as inhibition of virus-induced cytopathicity; assay type: functional, organism-based; conditions: Enterovirus B
[6] = system: Mammalian orthoreovirus 1; assay: Antiviral activity against Mammalian orthoreovirus 1 infected Vero cells assessed as inhibition of virus-induced cytopathicity; assay type: functional, organism-based; conditions: Mammalian orthoreovirus 1, Vero
[7] = system: Human alphaherpesvirus 2; assay: Antiviral activity against Human herpesvirus 2 strain G infected human HEL cells assessed as inhibition of virus-induced cytopathicity; assay type: functional, organism-based; conditions: Human alphaherpesvirus 2, strain G
[8] = system: Vaccinia virus; assay: Antiviral activity against Vaccinia virus infected human HEL cells assessed as inhibition of virus-induced cytopathicity; assay type: functional, organism-based; conditions: Orthopoxvirus vaccinia
[9] = system: Aspergillus niger; assay: Antimicrobial activity against Aspergillus niger after 7 days by serial dilution method; assay type: functional
[10] = Cytotoxicity against Homo sapiens (human) HEL cells; assay type: cell-based
[11] = Cytotoxicity against Chlorocebus aethiops (African green monkey) Vero cells assessed as alteration in cell morphology; assay type: cell-based; conditions: chlorocebus sabaeus
[12] = system: Bacillus subtilis; assay: Antimicrobial activity against Bacillus subtilis after 24 hr by serial dilution method; assay type: functional
[13] = system: Punta Toro virus; assay: Antiviral activity against Punta Toro virus infected Vero cells assessed as inhibition of virus-induced cytopathicity; assay type: functional, organism-based
[14] = Cytotoxicity against Homo sapiens (human) HeLa cells; assay type: cell-based
[15] = system: Sindbis virus; assay: Antiviral activity against Sindbis virus infected Vero cells assessed as inhibition of virus-induced cytopathicity; assay type: functional, organism-based
[16] = system: Coxsackievirus B4; assay: Antiviral activity against Human coxsackievirus B4 infected Vero cells assessed as inhibition of virus-induced cytopathicity; assay type: functional, organism-based; conditions: Enterovirus B
[17] = system: Human respirovirus 3; assay: Antiviral activity against Human parainfluenza virus 3 infected Vero cells assessed as inhibition of virus-induced cytopathicity; assay type: functional, organism-based; conditions: Human respirovirus 3, Vero
[18] = Cytotoxicity against Homo sapiens (human) MT4 cells; assay type: cell-based
[19] = system: Human immunodeficiency virus 2; assay: Antiviral activity against Human immunodeficiency virus type 2 (ISOLATE ROD) infected human MT4 cells assessed as inhibition of virus-induced cytopathicity; assay type: functional, organism-based; conditions: Human immunodeficiency virus 2, ISOLATE ROD
[20] = system: Staphylococcus aureus; assay: Antimicrobial activity against Staphylococcus aureus after 24 hr by serial dilution method; assay type: functional
[21] = system: Human immunodeficiency virus 1; assay: Antiviral activity against Human immunodeficiency virus 1 IIIB infected human MT4 cells assessed as inhibition of virus-induced cytopathicity; assay type: functional, organism-based
[22] = system: Respiratory syncytial virus; assay: Antiviral activity against Respiratory syncytial virus infected human HeLa cells assessed as inhibition of virus-induced cytopathicity; assay type: functional, organism-based
[23] = system: Candida albicans; assay: Antimicrobial activity against Candida albicans after 48 hr by serial dilution method; assay type: functional

Row | Compound | EC50 [1] [µg/mL] | EC50 [2] [µg/mL] | -logMIC [3] | EC50 [4] [µg/mL] | EC50 [5] [µg/mL] | EC50 [6] [µg/mL] | EC50 [7] [µg/mL] | EC50 [8] [µg/mL] | -logMIC [9] | MCC [10] [µg/mL] | MCC [11] [µg/mL] | -logMIC [12] | EC50 [13] [µg/mL] | MCC [14] [µg/mL] | EC50 [15] [µg/mL] | CC50 [18] [µg/mL] | EC50 [19] [µg/mL] | -logMIC [20] | EC50 [21] [µg/mL] | -logMIC [23] | also measured
1 | O=C(N/N=C/c1c(O)ccc2ccccc12)c1ccncc1 | > 0.04 | 0.06 (≈ 0.206 µM) | 2.07 | 0.4 (≈ 1.37 µM) | > 0.04 | > 0.8 | 0.4 (≈ 1.37 µM) | 0.14 (≈ 0.481 µM) | 2.37 | ≥ 20 | ≥ 0.8 | 2.07 | > 0.8 | 0.2 | > 0.8 | 0.1 (≈ 0.343 µM) | > 0.1 | 2.07 | > 0.1 | 2.37 | EC50 [16]: > 0.8 µg/mL; EC50 [17]: > 0.8 µg/mL; EC50 [22]: > 0.04 µg/mL
2 | O=C(NNC(=O)c1cc([N+](=O)[O-])ccc1Cl)c1ccncc1 |  |  | 2.11 |  |  |  |  |  | 2.41 |  |  | 2.11 |  |  |  | 116 (≈ 361 µM) | > 116 | 2.11 | > 116 | 2.41 | 
3 | Cc1ccnc2c1NC(=O)c1cccnc1N2C1CC1 [NEVIRAPINE] |  |  |  |  |  |  |  |  |  |  |  |  |  |  |  | > 4 | > 4 |  |  |  | 
4 | CC(Cl)C(=O)NNC(=O)c1ccncc1 (stereo not given) |  |  | 2.26 |  |  |  |  |  | 2.26 |  |  | 1.96 |  |  |  | 77.5 (≈ 340 µM) | > 77.5 | 2.26 | > 77.5 | 2.26 | 
5 | CCOc1cc(/C=N/N(C(=O)c2ccccc2)C(=O)c2ccncc2)ccc1O | > 100 | > 100 | 2.49 | > 100 | > 100 | > 100 | > 100 | > 100 | 2.19 | > 100 | > 100 | 2.19 | > 100 | > 100 | > 100 | ≥ 92 | > 92 | 2.19 | > 92 | 2.79 | EC50 [16]: > 100 µg/mL; EC50 [17]: > 100 µg/mL; EC50 [22]: > 100 µg/mL
6 | O=C(NNC(=O)c1ccc(Cl)cc1)c1ccncc1 |  |  | 1.74 |  |  |  |  |  | 1.74 |  |  | 2.34 |  |  |  | > 120 | > 120 | 2.34 | > 120 | 2.64 | 
7 | Cc1cn([C@H]2C[C@H](N=[N+]=[N-])[C@@H](CO)O2)c(=O)[nH]c1=O [ZIDOVUDINE] |  |  |  |  |  |  |  |  |  |  |  |  |  |  |  | > 25 |  |  |  |  | 
8 | O=C(N/N=C/c1c[nH]c2ccccc12)c1ccncc1 | > 100 | > 100 | 2.02 | > 100 | > 100 | 2.4 (≈ 9.08 µM) | > 100 | > 100 | 2.32 | > 100 | > 100 | 2.02 | > 100 | ≥ 100 | > 100 | 95 (≈ 359 µM) | > 95 | 2.02 | > 95 | 2.63 | EC50 [16]: 45 µg/mL (≈ 170 µM); EC50 [17]: > 100 µg/mL; EC50 [22]: > 100 µg/mL
9 | C/C=C/C=N/NC(=O)c1ccncc1 | > 20 | > 20 | 1.88 | > 20 | > 20 | > 20 | > 20 | > 20 | 2.18 | 100 | 100 | 1.88 | > 20 | 100 | > 20 | 11 (≈ 58.1 µM) | > 11 | 1.88 | > 11 | 2.48 | EC50 [16]: > 20 µg/mL; EC50 [17]: > 20 µg/mL; EC50 [22]: > 20 µg/mL
10 | Cc1ccc(/C=N/NC(=O)c2ccncc2)cc1 [N'-(4-METHYLBENZYLIDENE)ISONICOTINOHYDRAZIDE] | > 20 | > 100 | 1.98 | > 100 | 9 (≈ 37.6 µM) | > 20 | > 100 | > 100 | 2.28 | > 100 | ≥ 20 | 1.98 | > 20 | 100 | > 20 | 25 (≈ 104 µM) | > 25 | 1.98 | > 25 | 2.28 | EC50 [16]: > 20 µg/mL; EC50 [17]: > 20 µg/mL; EC50 [22]: > 20 µg/mL
11 | COc1cc(/C=N/NC(=O)c2ccncc2)ccc1O [FTIVAZIDE] | > 20 | > 100 | 2.34 | > 100 | > 20 | > 100 | > 100 | > 100 | 2.34 | > 100 | > 100 | 2.04 | > 100 | 100 | > 100 | ≥ 89 | > 89 | 2.04 | > 89 | 2.34 | EC50 [16]: > 100 µg/mL; EC50 [17]: > 100 µg/mL; EC50 [22]: > 20 µg/mL
12 | CSc1ccc(/C=N/NC(=O)c2ccncc2)cc1 | > 20 | > 100 | 2.34 | > 100 | > 20 | > 100 | > 100 | > 100 | 2.34 | > 100 | ≥ 100 | 2.04 | > 100 | 100 | > 100 | 59 (≈ 217 µM) | > 59 | 2.04 | > 59 | 2.34 | EC50 [16]: 9 µg/mL (≈ 33.2 µM); EC50 [17]: > 100 µg/mL; EC50 [22]: > 20 µg/mL
13 | COc1cc(/C=N/N(C(=O)c2ccccc2)C(=O)c2ccncc2)ccc1O | > 20 | > 100 | 2.48 | > 100 | > 20 | > 100 | > 100 | > 100 | 2.48 | > 100 | ≥ 100 | 2.18 | > 100 | 100 | > 100 | 105 (≈ 280 µM) | > 105 | 2.48 | > 105 | 3.08 | EC50 [16]: > 100 µg/mL; EC50 [17]: > 100 µg/mL; EC50 [22]: > 20 µg/mL
14 | CCOc1cc(/C=N/NC(=O)c2ccncc2)ccc1O | > 100 | > 100 | 2.36 | > 100 | > 100 | > 100 | > 100 | > 100 | 2.36 | > 100 | > 100 | 2.06 | > 100 | > 100 | > 100 | 102 (≈ 358 µM) | > 102 | 2.06 | > 102 | 2.36 | EC50 [16]: > 100 µg/mL; EC50 [17]: > 100 µg/mL; EC50 [22]: > 100 µg/mL
15 | COc1cccc(OC)c1/C=N/N(C(=O)c1ccccc1)C(=O)c1ccncc1 | > 4 | > 100 | 2.49 | > 100 | > 4 | > 20 | > 100 | > 100 | 2.49 | > 100 | 100 | 2.49 | > 20 | 20 | > 20 | 12 (≈ 30.8 µM) | > 12 | 2.49 | > 12 | 3.1 | EC50 [16]: > 20 µg/mL; EC50 [17]: > 20 µg/mL; EC50 [22]: > 4 µg/mL
16 | O=C(c1ccccc1)N(/N=C/c1ccccc1O)C(=O)c1ccncc1 |  |  | 2.44 |  |  |  |  |  | 2.44 |  |  | 2.44 |  |  |  |  |  | 1.84 |  | 3.04 | 
17 | OC(Cn1cncn1)(Cn1cncn1)c1ccc(F)cc1F [FLUCONAZOLE] |  |  |  |  |  |  |  |  | 2.64 |  |  |  |  |  |  |  |  |  |  | 2.64 | 
18 | NNC(=O)c1ccncc1 [ISONIAZID] |  |  | 1.74 |  |  |  |  |  | 2.04 |  |  | 1.74 |  |  |  |  |  | 2.04 |  | 2.34 | 
19 | O=C(N/N=C/c1ccccc1O)c1ccncc1 [SALINAZID] |  |  | 2.29 |  |  |  |  |  | 2.29 |  |  | 1.98 |  |  |  | 2.52 (≈ 10.4 µM) | > 2.52 | 1.98 | > 2.52 | 2.29 | 
20 | CCn1cc(C(=O)O)c(=O)c2cc(F)c(N3CCNCC3)cc21 [NORFLOXACIN] |  |  | 2.61 |  |  |  |  |  |  |  |  | 2.61 |  |  |  |  |  | 2.61 |  |  | 
